Test results from patent US20230119806A1, “ANTIGEN SPECIFIC EPITOPE BASED ANTI-INFECTIVE VACCINES” (VAXIL BIOTHERAPEUTICS LTD., priority 2020, published 2023).

Columns and labels:
[1] = tested on: BALB/c and C57BL/6 mice; assay: ELISA of sera of mice immunized with signal peptides (antibody response); format: in vivo; settings: for antibody response against VXL-303 (ELISA): VXL-303 coated plate; for antibody responses of immunized mice (ELISA, overall): summary of BALB/c and C57BL/6 ELISA results; for antibody response against VXL-301 (ELISA): VXL-301 coated plate
Method: (§1) BALB/c and C57BL/6 mice were immunized by subcutaneous (SC) injections with 100 μg of individual SPs or a SP mixture and with intraperitoneal injections of 100 ng of mouse granulocyte macrophage colony stimulating factor (mGM-CSF) three times at 7-day intervals.
To monitor if antibody response was developed against the SPs an enzyme-linked immunosorbent assay (ELISA) was performed with sera obtained on days 10 and 20 post the last immunization when VXL-301, or VXL-302, or VXL-303 or VXL-201c (negative control) were coated on the ELISA plate.

[2] = tested on: splenocytes of immunized BALB/c mice; assay: ELISpot of interferon gamma after SP stimulation of splenocytes; format: cell-based
Method: as §1

[3] = tested on: splenocytes of immunized C57BL/6 mice; assay: ELISpot of interleukin 2 after SP stimulation of splenocytes; format: cell-based; settings: SP stimulation of splenocytes of immunized C57BL/6 mice
Method: as §1

[4] = tested on: Peripheral blood mononuclear cells (PBMCs) from healthy donors; assay: Ex vivo immunogenicity: proliferation of PBMCs stimulated by SP-loaded autologous dendritic cells; format: cell-based; settings: healthy donor PBMCs; for proliferation in CD4+ and CD8+ T cells / proliferation versus positive control SPs: SP-loaded autologous DCs
Method: Immunogenicity is assessed by quantifying proliferation of T cells in response to exposure to peptides. To this end, healthy donor peripheral blood mononuclear cells (PBMCs) are marked by a fluorescent dye and exposed to either the naked peptide or to autologous antigen presenting cells (APCs) pre-loaded with the SP. Phytohaemagglutinin (PHA), or tetanus toxoid, (TT), or previously tested SPs, serve as a positive control for maximum stimulation. Unloaded APCs, or medium, or human Fab fragments serve as negative controls. Proliferation is calculated by the increase of CD3+ T cells and the fraction of cells with different number of cell divisions assessed by flow cytometry.
Peripheral blood mononuclear cells (PBMCs) from healthy donors were stimulated by SP-loaded autologous dendritic cells (DCs).

[5] = BALB/c mice, sera day 10 post last immunization, 100 μg SC + mGM-CSF, three times
[6] = C57BL/6 mice, sera day 20 post last immunization

Sequence | antibody response against VXL-303 (ELISA) [1, 5] | antibody response against VXL-303 (ELISA) [1, 6] | antibody responses of immunized mice (ELISA, overall) [1] | secretion of interferon gamma (ELISpot) [2] | secretion of interleukin 2 (ELISpot) [3] | proliferation versus unloaded DCs (non-specific proliferation) [4] | proliferation in CD4+ and CD8+ T cells [4] | proliferation versus positive control SPs [4] | antibody response against VXL-301 (ELISA) [1, 5] | antibody response against VXL-301 (ELISA) [1, 6]
MKFLVFLGIITTVAA [VXL-303] | greatest antibody response | highest antibody responses | demonstrated antibody responses | induced secretion of interferon gamma primarily in the VXL-303- and the SP mixture-immunized groups | induced secretion of interleukin 2 primarily in the VXL-303- and the SP mixture-immunized groups | proliferation that was greater than unloaded DCs | evident in both CD4+ cytotoxic T cells and CD8+ helper T cells | comparable to the levels observed for positive control SPs | – | –
MFVFLVLLPLVSSQC [VXL-301] | – | – | demonstrated antibody responses | induced secretion of interferon gamma primarily in the VXL-301- and the SP mixture-immunized groups | induced secretion of interleukin 2 primarily in the VXL-301- and the SP mixture-immunized groups | proliferation that was greater than unloaded DCs | evident in both CD4+ cytotoxic T cells and CD8+ helper T cells | comparable to the levels observed for positive control SPs | greatest antibody response | highest antibody responses
MKIILFLALITLATC [VXL-302, signal peptide of SARS-CoV-2 ORF7a] | – | – | – | induced secretion of interferon gamma primarily in the VXL-302 immunized group | induced secretion of interleukin 2 primarily in the VXL-302-immunized group | proliferation that was greater than unloaded DCs | evident in both CD4+ cytotoxic T cells and CD8+ helper T cells | comparable to the levels observed for positive control SPs | – | –
